Experimental data taken from PMC10406613, “Endocytic myosin-1 is a force-insensitive, power-generating motor” (The Journal of Cell Biology, 2023).

Legend:
[1] = molecular target: T1, phosphorylated Myo5 (actoMyo5) (Saccharomyces cerevisiae, UniProt Q04439); assay: stopped-flow light scattering, ADP release from ADP-saturated actoMyo5 mixed with ATP; type: binding; set-up: motor domain plus both IQ motifs, truncated at Gly763, C-terminal AviTag-TEV-His9 kept; co-expressed with She4 in S. cerevisiae D1074; phosphorylated at TEDS site S357 by Pak1; Cmd1 light chain in excess; with Calmodulin; Actin, alpha skeletal muscle (rabbit, Oryctolagus cuniculus); conditions: 100 µM ADP preincubated with 200 nM actoMyo5, then 2.5 mM ATP, KMg25 buffer pH 7, 20°C, phosphorylated at S357
Excerpt: stopped-flow light scattering, ADP release from ADP-saturated actoMyo5 mixed with ATP on phosphorylated Myo5 (actoMyo5)

[2] = molecular target: T2, unphosphorylated Myo5 (actoMyo5) (Saccharomyces cerevisiae, UniProt Q04439); assay: as above; type: binding; set-up: motor domain plus both IQ motifs, truncated at Gly763, C-terminal AviTag-TEV-His9 kept; co-expressed with She4 in S. cerevisiae D1074; lambda phosphatase-treated (unphosphorylated at TEDS site S357); Cmd1 light chain in excess; with Calmodulin; Actin, alpha skeletal muscle (rabbit, Oryctolagus cuniculus); conditions: ADP dissociation rate constant, 100 µM ADP preincubated with 200 nM actoMyo5, then 2.5 mM ATP, KMg25 buffer pH 7, 20°C
Excerpt: stopped-flow light scattering, ADP release from ADP-saturated actoMyo5 mixed with ATP on unphosphorylated Myo5 (actoMyo5)

[3] = molecular target: T1, phosphorylated Myo5 (actoMyo5); conditions: apparent second-order rate constant of ATP binding to nucleotide-free actoMyo5 (actin-bound); MgATP, KMg25 buffer pH 7, 20°C; phosphorylated at S357
Excerpt: stopped-flow light scattering, ATP-induced dissociation of actoMyo5, linear fit on phosphorylated Myo5 (actoMyo5)

[4] = molecular target: T2, unphosphorylated Myo5 (actoMyo5); assay: biochemical
Excerpt: stopped-flow light scattering, ATP-induced dissociation of actoMyo5, hyperbolic fit on unphosphorylated Myo5 (actoMyo5)

T1 sequence (Q04439 whole entry, looked up, the tested form may be a part): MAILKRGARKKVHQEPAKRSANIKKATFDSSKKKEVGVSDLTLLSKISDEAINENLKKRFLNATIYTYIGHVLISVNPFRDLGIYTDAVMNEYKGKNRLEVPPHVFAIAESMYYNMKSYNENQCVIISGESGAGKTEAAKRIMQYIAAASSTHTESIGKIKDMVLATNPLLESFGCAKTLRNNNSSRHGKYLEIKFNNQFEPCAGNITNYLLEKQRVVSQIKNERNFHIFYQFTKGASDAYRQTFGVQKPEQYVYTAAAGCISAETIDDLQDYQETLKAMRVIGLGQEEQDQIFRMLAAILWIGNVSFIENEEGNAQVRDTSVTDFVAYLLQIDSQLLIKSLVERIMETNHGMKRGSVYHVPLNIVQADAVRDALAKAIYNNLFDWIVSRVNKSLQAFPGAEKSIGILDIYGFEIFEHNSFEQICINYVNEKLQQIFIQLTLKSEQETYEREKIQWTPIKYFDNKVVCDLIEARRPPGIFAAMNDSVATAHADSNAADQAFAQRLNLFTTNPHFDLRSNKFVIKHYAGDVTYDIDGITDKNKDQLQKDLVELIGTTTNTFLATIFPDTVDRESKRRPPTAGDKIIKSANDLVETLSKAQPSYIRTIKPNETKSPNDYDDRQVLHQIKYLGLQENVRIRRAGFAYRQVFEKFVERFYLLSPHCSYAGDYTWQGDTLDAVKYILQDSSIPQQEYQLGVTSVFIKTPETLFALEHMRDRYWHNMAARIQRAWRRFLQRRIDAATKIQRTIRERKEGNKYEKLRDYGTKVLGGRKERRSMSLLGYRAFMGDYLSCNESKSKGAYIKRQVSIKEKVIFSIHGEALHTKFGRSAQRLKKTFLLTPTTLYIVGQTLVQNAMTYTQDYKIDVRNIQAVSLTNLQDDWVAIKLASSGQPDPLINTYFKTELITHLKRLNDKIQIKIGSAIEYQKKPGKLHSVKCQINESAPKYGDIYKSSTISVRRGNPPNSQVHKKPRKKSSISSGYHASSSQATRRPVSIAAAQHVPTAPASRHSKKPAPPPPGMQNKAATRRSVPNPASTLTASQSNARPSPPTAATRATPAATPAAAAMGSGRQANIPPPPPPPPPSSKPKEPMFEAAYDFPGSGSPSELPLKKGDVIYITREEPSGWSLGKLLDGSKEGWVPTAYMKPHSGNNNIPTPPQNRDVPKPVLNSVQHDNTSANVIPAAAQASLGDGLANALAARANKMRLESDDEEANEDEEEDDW
T2 sequence (Q04439 whole entry, looked up, the tested form may be a part): as above

Structure (SMILES): Nc1ncnc2c1ncn2[C@@H]1O[C@H](COP(=O)(O)OP(=O)(O)O)[C@@H](O)[C@H]1O [ADP]
- ADP dissociation rate constant [1]: 74 ± 2.0 s⁻¹
- ADP release rate constant [2]: 107 (±5.9) s^−1

Structure (SMILES): Nc1ncnc2c1ncn2[C@@H]1O[C@H](COP(=O)(O)OP(=O)(O)OP(=O)(O)O)[C@@H](O)[C@H]1O [ATP]
- Phosphorylated Myo5 [3]: 0.39 (±0.017) µM^−1 s^−1
- Kd [4]: 167 µM
